Laboratory results from US20200000842A1, “COMPOSITION AND METHOD FOR IMPROVING QOL WITH MOLECULAR HYDROGEN IN CANCER- HAVING SUBJECT” (MiZ Company Limited, priority 2018, published 2020).

Columns and labels:
[1] = tested on: patient with terminal systemic metastatic cancer; conditions: person, 3 times about 2 hours each over about 1 month
Procedure: A patient with terminal systemic metastatic cancer (person) breathed a mixed gas of hydrogen and air using a gaseous hydrogen inhalation apparatus (MHG-2000α (registered trademark); MiZ Company Limited, Kanagawa, Japan) total 3 times for about 2 hours each time over about 1 month before death of the patient. The hydrogen concentration in MHG-2000α is about 6 to 7% by volume (hydrogen generation rate: about 140 ml/min).

[2] = tested on: patient with stage 4 terminal pancreatic cancer
Procedure: A patient with stage 4 terminal pancreatic cancer (person) breathed a mixed gas of hydrogen and air using a gaseous hydrogen inhalation apparatus (MHG-2000α (registered trademark); MiZ Company Limited) for about 1 to 3 hours per day over about 8 months. The hydrogen concentration in MHG-2000α is about 6 to 7% by volume (hydrogen generation rate: about 140 ml/min).

[3] = tested on: patient with terminal pancreatic cancer; conditions: person
Procedure: A patient with terminal pancreatic cancer (person) breathed a mixed gas of hydrogen and air using a gaseous hydrogen inhalation apparatus (MHG-2000α (registered trademark); MiZ Company Limited) over about 4 months. Here, the mixed gas of hydrogen and air was breathed twice a week (duration each time: 1 to 3 hours) over first 2 months and for about 24 hours per day over subsequent 2 months. The hydrogen concentration in MHG-2000α is about 6 to 7% by volume (hydrogen generation rate: about 140 ml/min).

[4] = normal temperature and normal pressure; cited from earlier work
[5] = about 6 to 7% by volume hydrogen
[6] = about 6 to 7% by volume hydrogen over about 4 months

[HH] [hydrogen gas, molecular hydrogen]
appetite [1, 5]: recovered | complexion [1, 5]: improved | cancerous pain ([1]; mixed gas of hydrogen and air, about 6 to 7% by volume, no opioid): reduced | blood level of CA19-9 (pancreatic cancer marker) ([2]; about 6 months after the breathing of hydrogen gas, FIG. 1): sharply decreased | physical fatigue ([2]; after the first breathing): hardly complained about physical fatigue | survival after being told life expectancy of 3 months ([2]; person, stage 4, breathing about 1 to 3 hours per day): ≥ 9 months | growth of cancer by CT imaging examination once a month ([2]; person, about 6 to 7% by volume hydrogen, about 1 to 3 hours per day over about 8 months): no tendency of growth of cancer | appetite [3, 6]: had appetite | insomnia [3, 6]: improved in insomnia | cancerous pain ([3]; about 6 to 7% by volume hydrogen over about 4 months (twice a week 1 to 3 hours for 2 months, then about 24 hours per day for 2 months), no opioid): did not complain about pain or oppression | solubility in water [4]: about 1.6 ppm
